Results published in ChEMBL document CHEMBL1153839, “Pulmonary versus systemic delivery of antibiotics: comparison of vancomycin dispositions in the isolated rat lung” (Antimicrob Agents Chemother, 2007).

What was measured:
[1] = Ratio of drug level in bronchoalveolar fluid to lung in Wistar rat at 500 ug, administered through pulmonary route under respiratory mode of 30 respirations per minute, 4 ml/kg tidal volume; format: ADME; settings: in vivo, inhaled_or_intranasal
Lung [2] = assay: Drug level in Wistar rat lung at 500 ug, administered through systemic route; format: ADME, tissue-based; settings: in vivo
[3] = AUC (0 to infinity) in Wistar rat lung at 500 ug, administered through systemic route under respiratory mode of 60 respirations per minute, 2 ml/kg tidal volume; format: ADME; parameters: dose 500 ug, time infinity
[4] = Ratio of drug level in bronchoalveolar fluid to efferent fluid in Wistar rat at 500 ug, administered through pulmonary route under respiratory mode of 60 respirations per minute, 2 ml/kg tidal volume; format: ADME; settings: in vivo, inhaled_or_intranasal
Lung [5] = assay: Mean transit time in Wistar rat lung at 500 ug, administered through systemic route under respiratory mode of 60 respirations per minute, 2 ml/kg tidal volume; format: ADME, tissue-based; settings: in vivo, other
[6] = Ratio of drug level in bronchoalveolar fluid to lung in Wistar rat at 500 ug, administered through pulmonary route under respiratory mode of 60 respirations per minute, 2 ml/kg tidal volume; format: ADME; settings: in vivo, other
[7] = Ratio of drug level in lung to efferent fluid in Wistar rat at 500 ug, administered through pulmonary route under respiratory mode of 60 respirations per minute, 2 ml/kg tidal volume; format: ADME; settings: in vivo, inhaled_or_intranasal
[8] = Ratio of drug level in bronchoalveolar fluid to efferent fluid in Wistar rat at 500 ug, administered through pulmonary route under respiratory mode of 30 respirations per minute, 4 ml/kg tidal volume; format: ADME; settings: in vivo, inhaled_or_intranasal
[9] = Drug level in Wistar rat bronchoalveolar fluid at 500 ug, administered through systemic route; format: ADME, tissue-based, Lung; settings: in vivo
[10] = Ratio of drug level in lung to efferent fluid in Wistar rat at 500 ug, administered through pulmonary route under respiratory mode of 30 respirations per minute, 4 ml/kg tidal volume; format: ADME; settings: in vivo, inhaled_or_intranasal
Lung [11] = assay: Mean transit time in Wistar rat lung at 500 ug, administered through systemic route under respiratory mode of 30 respirations per minute, 4 ml/kg tidal volume; format: ADME, tissue-based; settings: in vivo, other
[12] = Ratio of drug level in lung to efferent fluid in Wistar rat at 500 ug, administered through systemic route under respiratory mode of 60 respirations per minute, 2 ml/kg tidal volume; format: ADME; settings: in vivo, other
[13] = Ratio of drug level in lung to efferent fluid in Wistar rat at 500 ug, administered through systemic route under respiratory mode of 30 respirations per minute, 4 ml/kg tidal volume; format: ADME; settings: in vivo, other
[14] = AUC (0 to infinity) in Wistar rat lung at 500 ug, administered through systemic route under respiratory mode of 30 respirations per minute, 4 ml/kg tidal volume; format: ADME; parameters: dose 500 ug, time infinity

**Q.** With `CN[C@H](CC(C)C)C(=O)N[C@H]1C(=O)N[C@@H](CC(N)=O)C(=O)N[C@H]2C(=O)N[C@H]3C(=O)N[C@H](C(=O)N[C@H](C(=O)O)c4cc(O)cc(O)c4-c4cc3ccc4O)[C@H](O)c3ccc(c(Cl)c3)Oc3cc2cc(c3O[C@@H]2O[C@H](CO)[C@@H](O)[C@H](O)[C@H]2O[C@H]2C[C@](C)(N)[C@H](O)[C@H](C)O2)Oc2ccc(cc2Cl)[C@H]1O` [VANCOMYCIN] as the compound, how does the Ratio [1] read?
**A.** Its Ratio is 7.1.

**Q.** What about the Drug uptake (Lung [2]) of the same compound?
**A.** The Drug uptake was 0.11 µg/g.

**Q.** And the AUC(0-inf) [3]?
**A.** Its AUC(0-inf) is 1830 ng·h/mL.

**Q.** What about the Ratio [4] of the same compound?
**A.** Its Ratio is over 17.89.

**Q.** What about the MTT (Lung [5]) of the same compound?
**A.** The MTT was 0.47 min.

**Q.** And the Ratio [6]?
**A.** The Ratio was 4.69.

**Q.** And the Ratio [7]?
**A.** Its Ratio is over 9.44.

**Q.** What about the Ratio [8] of the same compound?
**A.** The Ratio was 17.89.

**Q.** What about the Drug uptake [9] of the same compound?
**A.** Its Drug uptake is 0.1 µg/g.

**Q.** And the Ratio [10]?
**A.** The Ratio was 9.44.

**Q.** What about the MTT (Lung [11]) of the same compound?
**A.** The MTT was 0.78 min.

**Q.** What about the Ratio [12] of the same compound?
**A.** Its Ratio is 0.49.

**Q.** And the Ratio [13]?
**A.** The Ratio was 0.5.

**Q.** What about the AUC(0-inf) [14] of the same compound?
**A.** Its AUC(0-inf) is 2140 ng·h/mL.
